Reference: paper PMC10374108, “Structural and biochemical characterization of the key components of an auxin degradation operon from the rhizosphere bacterium Variovorax” (PLOS Biology, 2023)
Several values for one entry are separate records, joined by “and”; a condition that tells them apart may be missing. Equal values may be shown once. Read-outs that look alike come from different tables or passages of the source.

Key:
IadK2 = IadK2 (Variovorax paradoxus, UniProt T1X8R6); assay: ITC, auxins binding to IadK2
Chain of IadK2 (T1X8R6 entry or part of it): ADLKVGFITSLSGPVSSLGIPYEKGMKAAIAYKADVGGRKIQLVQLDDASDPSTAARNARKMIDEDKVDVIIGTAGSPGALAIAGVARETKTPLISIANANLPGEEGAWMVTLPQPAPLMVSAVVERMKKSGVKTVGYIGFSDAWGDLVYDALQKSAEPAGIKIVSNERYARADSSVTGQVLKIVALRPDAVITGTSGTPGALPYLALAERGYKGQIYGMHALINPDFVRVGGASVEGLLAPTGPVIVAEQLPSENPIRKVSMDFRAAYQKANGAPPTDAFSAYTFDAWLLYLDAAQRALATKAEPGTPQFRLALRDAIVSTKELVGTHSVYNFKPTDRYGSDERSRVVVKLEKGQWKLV
Method: (§1) ITC experiments were performed using a MicroCal PEAQ-ITC system (Malvern). All the experiments were performed at […] in a buffer containing 25 mM Tris-HCl (pH 7.5) and 150 mM NaCl (unless otherwise stated). […] Data was analyzed using the MicroCal PEAQ-ITC analysis software. All the measurements were repeated at least 2 times.

IadI = IadI (Variovorax paradoxus, UniProt A0A0H2M433); assay: ITC, IAA binding to IadI; set-up: species or system Variovorax paradoxus CL14
Chain of IadI (A0A0H2M433 entry or part of it): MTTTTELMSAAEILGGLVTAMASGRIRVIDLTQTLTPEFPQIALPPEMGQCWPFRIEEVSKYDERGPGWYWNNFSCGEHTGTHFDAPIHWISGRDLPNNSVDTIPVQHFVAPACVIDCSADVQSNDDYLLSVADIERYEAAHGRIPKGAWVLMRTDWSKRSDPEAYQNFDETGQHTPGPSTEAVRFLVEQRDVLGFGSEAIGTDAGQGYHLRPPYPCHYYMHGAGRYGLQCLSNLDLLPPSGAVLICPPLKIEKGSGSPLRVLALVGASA
Method: as §1

IadK2 mutants [1] = assay: Thermal shift assay (TSA), IadK2 mutants and IAA; type: binding, Variovorax paradoxus CL14; set-up: unit not given here; settings: replicates
Method: (§2) Ligands concentrations were tested at 2- to […] excess (10 to 1,000 μM) relative to the proteins (5 μM). The fluorescence dye SYPRO Orange at a final of 200-fold dilution was used to monitor the unfolding of proteins. The protein and ligand were incubated for 10 min at room temperature before the addition of SYPRO Orange dye. The QuantStudio 1 Plus real-time PCR system (Thermo Fisher) was used to control the temperature increasing from […] to […] with an increment of […] and to monitor the fluorescence (excitation: 520 ± 10 nm and emission: 558 ± 10 nm). Each tested group was run in triplicate and repeated. Data was imported to the Protein Thermal Shift software for analysis and plotting.

IadH = IadH (Variovorax paradoxus, UniProt A0A0H2LZB5); assay: ITC, IAA binding to IadH; set-up: species or system Variovorax paradoxus CL14
Chain of IadH (A0A0H2LZB5 entry or part of it): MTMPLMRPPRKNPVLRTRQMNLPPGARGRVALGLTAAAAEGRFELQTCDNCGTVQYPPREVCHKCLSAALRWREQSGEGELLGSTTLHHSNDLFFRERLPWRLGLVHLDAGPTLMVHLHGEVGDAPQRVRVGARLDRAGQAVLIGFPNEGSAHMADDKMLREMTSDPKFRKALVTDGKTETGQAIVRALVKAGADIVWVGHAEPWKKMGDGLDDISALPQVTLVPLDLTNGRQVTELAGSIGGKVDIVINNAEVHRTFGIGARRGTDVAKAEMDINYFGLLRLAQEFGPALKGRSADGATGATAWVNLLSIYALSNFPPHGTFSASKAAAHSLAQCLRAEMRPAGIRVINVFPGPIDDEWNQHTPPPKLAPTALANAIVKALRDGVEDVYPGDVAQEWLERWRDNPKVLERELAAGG
Method: as §1

IadK3 [2] = assay: Thermal shift assay (TSA), IadK3 with IAA and analogs; type: binding, Variovorax paradoxus CL14; settings: IadK3 with IAA, replicates
Method: as §2

IadK3 point mutants = assay: IAA binding to IadK3 point mutants (response to reviewers); set-up: species or system Variovorax paradoxus CL14; settings: pocket residues replaced by those of IadK2
Source text: We have performed point mutations for substitute residues in the potential ligand binding pocket of AdgA (now named as IadK3) with corresponding amino acids of AdgB (now named as IadK2). […] One potential explanation could be that residues beyond the putative ligand binding pocket may regulate the conformation of IadK3 and ligand binding specificity. Further studies would be required to further examined the ligand binding specificity of IadK3.

IadK3 [3] = molecular target: IadK3 (Variovorax paradoxus, UniProt A0A0H2LZ84); assay: ITC, auxins binding to IadK3; set-up: species or system Variovorax paradoxus CL14
Chain of IadK3 (Variovorax paradoxus, UniProt A0A0H2LZ84) (A0A0H2LZ84 entry or part of it): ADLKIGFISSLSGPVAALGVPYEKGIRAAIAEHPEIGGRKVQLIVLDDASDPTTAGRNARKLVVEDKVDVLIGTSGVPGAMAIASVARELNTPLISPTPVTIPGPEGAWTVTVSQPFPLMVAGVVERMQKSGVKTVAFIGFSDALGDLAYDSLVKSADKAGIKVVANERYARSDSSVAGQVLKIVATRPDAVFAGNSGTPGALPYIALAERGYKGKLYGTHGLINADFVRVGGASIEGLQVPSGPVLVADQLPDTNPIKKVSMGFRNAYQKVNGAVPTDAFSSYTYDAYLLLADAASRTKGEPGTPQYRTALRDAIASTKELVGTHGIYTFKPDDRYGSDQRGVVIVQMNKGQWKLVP
Method: as §1

IadJ = IadJ (Variovorax paradoxus, UniProt A0A0H2M0A9); assay: ITC, IAA binding to IadJ; set-up: species or system Variovorax paradoxus CL14
Chain of IadJ (A0A0H2M0A9 entry or part of it): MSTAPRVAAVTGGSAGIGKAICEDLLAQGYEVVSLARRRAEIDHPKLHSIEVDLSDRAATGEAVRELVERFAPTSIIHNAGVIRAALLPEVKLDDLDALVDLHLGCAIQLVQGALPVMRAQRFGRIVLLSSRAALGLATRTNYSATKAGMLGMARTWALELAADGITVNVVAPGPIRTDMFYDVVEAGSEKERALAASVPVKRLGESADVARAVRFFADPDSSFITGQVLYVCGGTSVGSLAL
Method: as §1

IadK2 mutants [4] = molecular target: IadK2 mutants (Variovorax paradoxus, UniProt T1X8R6, R199A); assay: ITC, IAA binding to IadK2 mutants; set-up: species or system Variovorax paradoxus CL14; settings: Kd
Chain of IadK2 mutants (Variovorax paradoxus, UniProt T1X8R6, R199A) (T1X8R6 entry or part of it R199A): as the sequence (T1X8R6 entry or part of it) above, with R172A counted along it
Method: as §1

IadK2 mutants [5] = assay: ITC, IAA binding to IadK2 mutants; set-up: species or system Variovorax paradoxus CL14; settings: IadK2 mutant W172L, replicates
Method: as §1

IadK2 mutants [6] = molecular target: IadK2 mutants (Variovorax paradoxus, UniProt T1X8R6, S104V); assay: ITC, IAA binding to IadK2 mutants; set-up: species or system Variovorax paradoxus CL14; settings: Kd
Chain of IadK2 mutants (Variovorax paradoxus, UniProt T1X8R6, S104V) (T1X8R6 entry or part of it S104V): as the sequence (T1X8R6 entry or part of it) above, with S77V counted along it
Method: as §1

IadK2 mutants [7] = molecular target: IadK2 mutants (Variovorax paradoxus, UniProt T1X8R6, Y311A); assay: ITC, IAA binding to IadK2 mutants; set-up: species or system Variovorax paradoxus CL14; settings: Kd
Chain of IadK2 mutants (Variovorax paradoxus, UniProt T1X8R6, Y311A) (T1X8R6 entry or part of it Y311A): as the sequence (T1X8R6 entry or part of it) above, with Y284A counted along it
Method: as §1

IadK2 mutants [8] = molecular target: IadK2 mutants (Variovorax paradoxus, UniProt T1X8R6, S104V/W172L); assay: ITC, IAA binding to IadK2 mutants; set-up: species or system Variovorax paradoxus CL14
Chain of IadK2 mutants (Variovorax paradoxus, UniProt T1X8R6, S104V/W172L) (T1X8R6 entry or part of it S104V/W172L): as the sequence (T1X8R6 entry or part of it) above, with S77V, W145L counted along it
Method: as §1

IadC = molecular target: T1, IadC (Variovorax paradoxus, UniProt C5CSP5); assay: In vitro IAA transformation assay, IadC alone; type: biochemical, Variovorax paradoxus CL14; settings: result in words
T1 sequence (C5CSP5 1-330): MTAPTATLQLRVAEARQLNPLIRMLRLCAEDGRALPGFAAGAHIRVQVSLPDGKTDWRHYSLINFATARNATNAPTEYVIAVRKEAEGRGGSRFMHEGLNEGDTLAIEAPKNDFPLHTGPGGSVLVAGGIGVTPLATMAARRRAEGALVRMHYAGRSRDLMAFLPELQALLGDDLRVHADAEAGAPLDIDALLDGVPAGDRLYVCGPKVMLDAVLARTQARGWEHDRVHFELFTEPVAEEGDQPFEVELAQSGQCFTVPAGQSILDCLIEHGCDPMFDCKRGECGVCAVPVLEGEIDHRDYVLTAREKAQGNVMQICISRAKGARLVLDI
Method: In vitro assay was performed to test the capability of IadC/D/E enzymes encoded by the iad operon in transforming IAA and analogs. The reaction mixture was composed of 100 mM Tris-HCl (pH7.5), 250 μM reduced NADH, 10 μM ammonium iron (II) sulfate, and 3 μM of each enzyme component. […] The mixture was vortexed periodically to introduce oxygen for the reaction and was boiled to stop the reaction. After pelleting the precipitants, the supernatant was collected and mixed with 2 volumes of Salkowski reagent made of 0.5 M ferric chloride and 35% perchloric acid for the quantification of residual substrate by measuring the adsorption at 530 nm.

IadF = IadF (Variovorax paradoxus, UniProt A0A0H2MF82); assay: ITC, IAA binding to IadF; set-up: species or system Variovorax paradoxus CL14
Chain of IadF (A0A0H2MF82 entry or part of it): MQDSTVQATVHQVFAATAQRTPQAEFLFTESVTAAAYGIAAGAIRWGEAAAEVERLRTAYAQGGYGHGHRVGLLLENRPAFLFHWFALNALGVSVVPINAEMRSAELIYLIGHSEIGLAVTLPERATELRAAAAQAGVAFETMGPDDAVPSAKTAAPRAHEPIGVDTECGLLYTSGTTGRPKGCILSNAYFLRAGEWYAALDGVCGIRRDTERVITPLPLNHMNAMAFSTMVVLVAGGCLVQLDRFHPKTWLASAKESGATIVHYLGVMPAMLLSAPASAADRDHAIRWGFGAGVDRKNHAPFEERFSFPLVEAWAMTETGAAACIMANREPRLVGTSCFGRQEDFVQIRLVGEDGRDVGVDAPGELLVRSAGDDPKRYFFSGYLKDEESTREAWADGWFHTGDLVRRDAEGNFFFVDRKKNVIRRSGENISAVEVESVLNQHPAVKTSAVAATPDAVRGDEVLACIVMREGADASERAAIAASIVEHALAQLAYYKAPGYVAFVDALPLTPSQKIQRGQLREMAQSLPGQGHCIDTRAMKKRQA
Method: as §1

Structure (SMILES): O=C(O)Cc1c[nH]c2ccccc12 [IAA, indole-3-acetic acid]
- Kd (IadK2; ITC, biphasic isotherm, IadK2 + IAA, mean ± SEM, 3 measurements, read-out: KD1): 0.53 ± 0.08 µM
- Kd (IadK2; ITC, biphasic isotherm, IadK2 + IAA, mean ± SEM, 3 measurements, read-out: KD2): 0.009 ± 0.00305 µM
- Kd (IadK2; IadK2, ITC, replicates, read-out: Kd1): 500 nM and 600 nM (2×)
- Kd (IadK2; IadK2, ITC, replicates, read-out: Kd2): 0.0083 µM and 0.012 µM and 0.0114 µM
- IAA binding (ITC) (IadI): no binding detected
- Kd (IadI; ITC, replicates): > 100 µM
- Tm change with IAA (TSA) (IadK2 mutants [1]; IadK2 A125G): 2.99 and 2.492 and 3.488
- Tm change with IAA (TSA) (IadK2 mutants [1]; IadK2 A125T/N126P): 1.993 and 1.495 (2×)
- Tm change with IAA (TSA) (IadK2 mutants [1]; IadK2 A249G): 3.986 and 4.485 and 5.4814
- Tm change with IAA (TSA) (IadK2 mutants [1]; IadK2 F168G): 0.4983
- Tm change with IAA (TSA) (IadK2 mutants [1]; IadK2 F308G): 1.495
- Tm change with IAA (TSA) (IadK2 mutants [1]; IadK2 H248G): 2.492 (2×) and 3.488
- Tm change with IAA (TSA) (IadK2 mutants [1]; IadK2 N126A): 3.488 (2×) and 2.99
- Tm change with IAA (TSA) (IadK2 mutants [1]; IadK2 R199A): 0.4983 and 0 (2×)
- Tm change with IAA (TSA) (IadK2 mutants [1]; IadK2 S014V/W172L): 0
- Tm change with IAA (TSA) (IadK2 mutants [1]; IadK2 S104A): 2.99 and 2.492 and 3.488
- Tm change with IAA (TSA) (IadK2 mutants [1]; IadK2 S104V): 2.492 and 1.495 and 1.993
- Tm change with IAA (TSA) (IadK2 mutants [1]; IadK2 S224A): 2.99 and 3.986 (2×)
- Tm change with IAA (TSA) (IadK2 mutants [1]; IadK2 W172A): 0.4983 and 0 (2×)
- Tm change with IAA (TSA) (IadK2 mutants [1]; IadK2 W172L): 0
- Tm change with IAA (TSA) (IadK2 mutants [1]; IadK2 Y311A): 0
- IAA binding (ITC) (IadH): no binding detected
- Kd (IadH; ITC, replicates): > 100 µM
- ΔTm (IadK3 [2]): 0.997 °C and -0.4983 °C and -0.9966 °C
- binding of IAA to IadK3 point mutants (IadK3 point mutants): none of the mutations could make IadK3 bind with IAA
- Kd (IadK3 [3]; IadK3, ITC, replicates, read-out: ITC binding): > 100 µM
- binding to IadK3 (ITC) (IadK3 [3]; result in words): no obvious binding
- IAA binding (ITC) (IadJ): no binding detected
- Kd (IadJ; ITC, replicates): > 100 µM
- Kd (IadK2 mutants [4]; IadK2 R199A, IAA, mean ± SD): 11.2 ± 1.8 µM
- Kd (IadK2 mutants [4]; IadK2 mutant R199A, replicates): 9.5 µM and 10.4 µM
- Kd (IadK2 mutants [5]): weak binding
- Kd (IadK2 mutants [6]; IadK2 S104V, IAA, mean ± SD): 1.1 ± 0.3 µM
- Kd (IadK2 mutants [6]; IadK2 mutant S104V, replicates): 0.88 µM and 0.9 µM and 1.5 µM
- Kd (IadK2 mutants [7]; IadK2 Y311A, IAA, mean ± SD): 21 ± 3 µM
- Kd (IadK2 mutants [7]; IadK2 mutant Y311A, replicates): 17 µM and 24 µM and 22 µM
- Kd (IadK2 mutants [8]; IadK2 mutant W172L/S104V, replicates): > 100 µM
- Kd (IadK2 mutants [8]; Kd, IadK2 W172L/S104V, IAA): > 100 µM
- Kd (IadK2 mutants [8]; Kd, IadK2 mutant W172L/S104V, replicates): > 100 µM
- transformation by IadC alone (IadC): neither IadD/E nor IadC alone could catalyze the transformation
- IAA binding (ITC) (IadF): no binding detected
- Kd (IadF; ITC, replicates): > 100 µM
